The text below walks through data of patent US10323022B2, “Pyrrolidinyl urea, pyrrolidinyl thiourea and pyrrolidinyl guanidine compounds as TrkA kinase inhibitors” (Array BioPharma Inc., priority 2011, dated 2019).

pIC50: −log10 of the molar value.

The target of this test is TrkA (Homo sapiens (Human), UniProt P04629). The test can be described thus: TrkA Omnia Assay. Format: biochemical. Conditions: averaged IC50; 20 nM enzyme, 500 μM ATP, 10 μM peptide substrate. The method, then:
Trk enzymatic selectivity was assessed using Omnia™ Kinase Assay reagents from Invitrogen Corp. Enzyme (TrkA from Invitrogen Corp.) and test compound (various concentrations) were incubated for 10 minutes at ambient temperature in a 384-well white polypropylene plate (Nunc catalog#267462). Omnia Tyr Peptide #4, as well as ATP, were then added to the plate. Final concentrations were as follows: 20 nM enzyme, 500 μM of ATP, 10 μM peptide substrate. The assay buffer consisted of 25 mM MOPS pH 7.5, 0.005% (v/v) Triton X-100 and 5 mM MgCl2. The production of phosphorylated peptide was monitored continuously for 70 minutes using a Molecular Devices FlexStation II^384 microplate reader (excitation=360 nm; emission=485 nm). Initial rates were calculated from the progress curves. IC50 values were calculated from these rates using either a 4 or 5-parameter logistic curve fit.

TrkA, sequence (P04629 33-796): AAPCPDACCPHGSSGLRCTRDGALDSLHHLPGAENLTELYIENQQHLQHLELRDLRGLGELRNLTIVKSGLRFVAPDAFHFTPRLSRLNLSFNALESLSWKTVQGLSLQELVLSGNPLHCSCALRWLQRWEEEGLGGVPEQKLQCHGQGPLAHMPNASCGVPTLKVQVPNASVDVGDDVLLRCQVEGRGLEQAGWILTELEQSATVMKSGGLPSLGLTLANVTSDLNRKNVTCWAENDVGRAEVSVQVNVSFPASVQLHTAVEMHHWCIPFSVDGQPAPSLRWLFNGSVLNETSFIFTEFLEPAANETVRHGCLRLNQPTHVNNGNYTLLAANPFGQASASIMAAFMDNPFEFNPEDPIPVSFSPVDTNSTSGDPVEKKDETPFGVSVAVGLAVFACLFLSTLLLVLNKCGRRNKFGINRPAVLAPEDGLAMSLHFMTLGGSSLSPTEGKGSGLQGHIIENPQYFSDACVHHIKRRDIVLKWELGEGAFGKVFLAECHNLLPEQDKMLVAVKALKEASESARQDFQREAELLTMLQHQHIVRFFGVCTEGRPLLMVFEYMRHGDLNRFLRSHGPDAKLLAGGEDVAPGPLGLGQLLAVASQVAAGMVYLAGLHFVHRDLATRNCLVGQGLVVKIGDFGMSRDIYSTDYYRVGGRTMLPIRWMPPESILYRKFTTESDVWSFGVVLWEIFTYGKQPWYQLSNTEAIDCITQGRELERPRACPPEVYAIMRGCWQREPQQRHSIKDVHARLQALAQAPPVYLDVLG

What is called pIC50 is the negative decadic logarithm of the IC50, by convention in mol/L. A higher pIC50 goes with a low IC50. `O=C(Nc1c2c(nn1-c1ccccc1)CCC2)N[C@@H]1CN(CC(F)(F)F)C[C@H]1c1ccc(Cl)cc1` (relative stereo) [Example 211, 1-((trans)-4-(4-chlorophenyl)-1-(2,2,2-trifluoroethyl)pyrrolidin-3-yl)-3-(2-phenyl-2,4,5,6-tetrahydrocyclopenta[c]pyrazol-3-yl)urea]: the negative logarithm of the IC50 (pIC50) was > 7.00. As to `COCCN1C[C@@H](NC(=O)Nc2c(C)c(-c3ccc(=O)n(CC(F)(F)F)c3)nn2-c2ccccc2)[C@H](c2ccc(F)c(F)c2)C1` [Example 517, 1-((3S,4R)-4-(3,4-difluorophenyl)-1-(2-methoxyethyl)pyrrolidin-3-yl)-3-(4-methyl-3-(6-oxo-1-(2,2,2-trifluoroethyl)-1,6-dihydropyridin-3-yl)-1-phenyl-1H-pyrazol-5-yl)urea], the negative-log IC50 (pIC50) is > 7.00. The result for `N#CCN1C[C@@H](NC(=O)Nc2c3c(nn2-c2ccccc2)CCC3)[C@H](c2ccccc2)C1` [Example 188, 1-((3,4-trans)-1-(cyanomethyl)-4-phenylpyrrolidin-3-yl)-3-(2-phenyl-2,4,5,6-tetrahydrocyclopenta[c]pyrazol-3-yl)urea] reads 6.00 to 7.00; that for `COCCN1C[C@@H](NC(=O)Nc2c(C)c(OCc3ncn(C)n3)nn2-c2ccccc2)[C@H](c2ccc(F)c(F)c2)C1` [Example 391, 1-((3S,4R)-4-(3,4-difluorophenyl)-1-(2-methoxyethyl)pyrrolidin-3-yl)-3-(4-methyl-3-((1-methyl-1H-1,2,4-triazol-3-yl)methoxy)-1-phenyl-1H-pyrazol-5-yl)urea], > 7.00. Regarding `COCCN1C[C@@H](NC(=O)Nc2c(C(N)=O)c(C)nn2-c2ccccc2)[C@H](c2cc(F)cc(F)c2)C1` [Example 626, 5-(3-((3S,4R)-4-(3,5-difluorophenyl)-1-(2-methoxyethyl)pyrrolidin-3-yl)ureido)-3-methyl-1-phenyl-1H-pyrazole-4-carboxamide], the negative-log IC50 (pIC50) was > 7.00. As for `COCCN1C[C@@H](NC(=O)Nc2c(C)c(OCC(F)(F)F)nn2-c2ccccc2)[C@H](c2cc(F)cc(F)c2)C1` [Example 477, 1-((3S,4R)-4-(3,5-difluorophenyvl)-1-(2-methoxyethyl)pyrrolidin-3-yl)-3-(4-methyl-1-phenyl-3-(2,2,2-trifluoroethoxy)-1H-pyrazol-5-yl)urea], the negative logarithm of the IC50 (pIC50) is > 7.00. As for `COCCN1C[C@@H](NC(=O)Nc2c(C)c(-c3cnn(CCOC)c3)nn2-c2ccccc2)[C@H](c2ccc(F)cc2)C1` [Example 382, 1-((3S,4R)-4-(4-fluorophenyl)-1-(2-methoxyethyl)pyrrolidin-3-yl)-3-(1′-(2-methoxyethyl)-4-methyl-1-phenyl-1H,1′H-[3,4′-bipyrazol]-5-yl)urea], the pIC50 was > 7.00. `COCCN1C[C@@H](NC(=O)Nc2c(Cl)c(-c3nc(C)no3)nn2-c2ccccc2)[C@H](c2ccc(F)c(F)c2)C1` [Example 416, 1-(4-chloro-3-(3-methyl-1,2,4-oxadiazol-5-yl)-1-phenyl-1H-pyrazol-5-yl)-3-((3S,4R)-4-(3,4-difluorophenyl)-1-(2-methoxyethyl)pyrrolidin-3-yl)urea]: the negative logarithm of the IC50 (pIC50) is > 7.00. On to `COCCN1C[C@@H](NC(=O)Nc2cc(C(F)(F)F)nn2-c2ccccc2)[C@H](c2ccccc2)C1` [Example 53, 1-((3S,4R)-1-(2-methoxyethyl)-4-phenylpyrrolidin-3-yl)-3-(1-phenyl-3-(trifluoromethyl)-1H-pyrazol-5-yl)urea], for which the negative-log IC50 (pIC50) is > 7.00. With `COCCN1C[C@@H](NC(=O)Nc2c(Cl)c(C3CCN(C(=O)OC(C)(C)C)CC3)nn2-c2ccccc2)[C@H](c2ccc(F)c(F)c2)C1` [Example 569, Tert-butyl 4-(4-chloro-5-(3-((3S,4R)-4-(3,4-difluorophenyl)-1-(2-methoxyethyl)pyrrolidin-3-yl)ureido)-1-phenyl-1H-pyrazol-3-yl)piperidine-1-carboxylate], the pIC50 was > 7.00. For `COCCN1C[C@@H](NC(=O)Nc2cc(C(C)(C)C)nn2-c2ccc(F)cc2)[C@H](c2ccccc2)C1` (relative stereo) [Example 8, 1-(3-tert-butyl-1-(4-fluorophenyl)-1H-pyrazol-5-yl)-3-(trans-1-(2-methoxyethyl)-4-phenyl-pyrrolidin-3-yl)urea], the pIC50 is 6.00 to 7.00. As to `Cc1nn(-c2ccccc2)c(NC(=O)N[C@H]2CN(CC(F)(F)F)C[C@@H]2c2ccccc2)c1C` [Example 265, 1-(3,4-dimethyl-1-phenyl-1H-pyrazol-5-yl)-3-((3R,4S)-4-phenyl-1-(2,2,2-trifluoroethyl)pyrrolidin-3-yl)urea], the pIC50 was > 7.00. On to `CNC(=O)c1ccc(-c2cc(NC(=O)N[C@@H]3CN(CCOC)C[C@H]3c3ccc(F)c(F)c3)n(C)n2)cc1` [Example 163, 4-(5-(3-((3S,4R)-4-(3,4-difluorophenyl)-1-(2-methoxyethyl)pyrrolidin-3-yl)ureido)-1-methyl-1H-pyrazol-3-yl)-N-methylbenzamide], for which the pIC50 is > 7.00.

In the case of `COCCN1C[C@@H](NC(=O)Nc2c3c(nn2-c2ccccc2)C(C)(C)CC3)[C@H](c2ccccc2)C1` [Example 36, 1-(6,6-dimethyl-2-phenyl-2,4,5,6-tetrahydro-yclopenta [c]pyrazol-3-yl)-3-(trans-1-(2-methoxyethyl)-4-phenyl-pyrrolidin-3-yl)urea], the pIC50 was > 7.00. For `COCCN1C[C@@H](NC(=O)Nc2c3c(nn2-c2ccccc2)CCC3)[C@H](c2cc(F)cc(F)c2)C1` [Example 84, 1-((3S,4R)-4-(3,5-difluoro-phenyl)-1-(2-methoxyethyl)pyrrolidin-3-yl)-3-(2-phenyl-2,4,5,6-tetrahydro-cyclopenta[c]pyrazol-3-yl)urea], the pIC50 was > 7.00. In the case of `COCCN1C[C@@H](NC(=O)Nc2c(Cl)c(-c3ccncc3)nn2-c2ccccc2)[C@H](c2ccc(F)c(F)c2)C1` [Example 481, 1-(4-chloro-1-phenyl-3-(pyridin-4-yl)-1H-pyrazol-5-yl)-3-((3 S,4R)-4-(3,4-difluorophenyl)-1-(2-methoxyethyl)pyrrolidin-3-yl)urea], the pIC50 is > 7.00. The compound `N#CCN1C[C@@H](NC(=O)Nc2c3c(nn2-c2ccccc2)CCC3)[C@H](c2ccccc2)C1` [Example 189, 1-((3S,4R)-1-(cyanomethyl)-4-phenylpyrrolidin-3-yl)-3-(2-phenyl-2,4,5,6-tetrahydrocyclopenta[c]pyrazol-3-yl)urea] had a pIC50 of 6.00 to 7.00. With `COCCN1C[C@@H](NC(=O)Nc2c(C)c(CO)nn2-c2ccccc2)[C@H](c2ccc(F)c(F)c2)C1` [Example 132, 1-((3S,4R)-4-(3,4-difluorophenyl)-1-(2-methoxyethyl)pyrrolidin-3-yl)-3-(3-(hydroxy-methyl)-4-methyl-1-phenyl-1H-pyrazol-5-yl)urea], the pIC50 was > 7.00.

Take `COCCN1C[C@@H](NC(=O)Nc2c(Br)c(C[C@@H](C)O)nn2-c2ccccc2)[C@H](c2ccc(F)c(F)c2)C1` [Example 414, 1-(4-bromo-3-((R)-2-hydroxypropyl)-1-phenyl-1H-pyrazol-5-yl)-3-((3S,4R)-4-(3,4-difluorophenyl)-1-(2-methoxyethyl)pyrrolidin-3-yl)urea]: the negative logarithm of the IC50 (pIC50) is > 7.00. As for `COCCN1C[C@@H](NC(=O)Nc2cc(-c3ccccc3)nn2-c2ccccc2)[C@H](c2ccccc2)C1` (relative stereo) [Example 10, 1-(1,3-diphenyl-1H-pyrazol-5-yl)-3-(trans-1-(2-methoxyethyl)-4-phenylpyrrolidin-3-yl)urea], the negative logarithm of the IC50 (pIC50) was > 7.00. On to `COCCN1C[C@@H](NC(=O)Nc2c(C)c(-c3cnc(N(C)C)nc3)nn2-c2ccccc2)[C@H](c2ccc(F)c(F)c2)C1` [Example 527, 1-((3S,4R)-4-(3,4-difluorophenyl)-1-(2-methoxyethyl)pyrrolidin-3-yl)-3-(3-(2-(dimethylamino)pyrimidin-5-yl)-4-methyl-l-phenyl-1H-pyrazol-5-yl)urea], for which the pIC50 was > 7.00. The same measure for `COCCN1C[C@@H](NC(=O)Nc2c(C)c(-c3cncc(F)c3)nn2-c2ccccc2)[C@H](c2ccc(F)c(F)c2)C1` [Example 489, 1-((3S,4R)-4-(3,4-difluorophenyl)-1-(2-methoxyethyl)pyrrolidin-3-yl)-3-(3-(5-fluoropyridin-3-yl)-4-methyl-1-phenyl-1H-pyrazol-5-yl)urea]: > 7.00; for `COCCN1C[C@@H](NC(=O)Nc2c(C)c(-c3cnc(N(C)C)nc3)nn2-c2ccccc2)[C@H](c2ccc(F)cc2)C1` [Example 529, 1-(3-(2-(dimethylamino)pyrimidin-5-yl)-4-methyl-1-phenyl-1H-pyrazol-5-yl)-3-((3S,4R)-4-(4-fluorophenyl)-1-(2-methoxyethyl)pyrrolidin-3-yl)urea]: > 7.00. Consider `COCC(C(=O)OC)N1C[C@@H](NC(=O)Nc2c3c(nn2-c2ccccc2)CCC3)[C@H](c2ccc(F)c(F)c2)C1` (stereo partly drawn) [Example 259, methyl2-((3R,4S)-3-(3,4-difluorophenyl)-4-(3-(2-phenyl-2,4,5,6-tetrahydrocyclopenta[c]pyrazol-3-yl)ureido)pyrrolidin-1-yl)-3-methoxypropanoate], for which the negative logarithm of the IC50 (pIC50) was > 7.00.

As to `O=C(Nc1c2c(nn1-c1ccccc1)CCC2)N[C@@H]1CN(CCOC(F)(F)F)C[C@H]1c1ccccc1` (relative stereo) [Example 182, 1-(trans-4-phenyl-1-(2-(trifluoromethoxy)ethyl)pyrrolidin-3-yl)-3-(2-phenyl-2,4,5,6-tetrahydrocyclopenta[c]pyrazol-3-yl)urea], the pIC50 was > 7.00. The same measure for `COCCN1C[C@@H](NC(=O)Nc2c(Br)c(-c3ccccc3)nn2-c2ccccc2)[C@H](c2ccc(F)c(F)c2)C1` [Example 63, 1-(4-bromo-1,3-diphenyl-1H-pyrazol-5-yl)-3-((3S,4R)-4-(3,4-difluorophenyl)-1-(2-methoxyethyl)pyrrolidin-3-yl)urea]: > 7.00.
